Article PMC4949396, “The effects of apremilast on the QTc interval in healthy male volunteers: a formal, thorough QT study” (International Journal of Clinical Pharmacology and …, 2016)
Read-outs that look alike come from different tables or passages of the source. Marks after values point to notes of the source that are not given here.

Experiments:
[1] = test system: healthy male subjects; assay: thorough QT/QTc study, 24-hour digital Holter ECG (QTc, HR, PR); settings: for effect on the QT/QTc interval: overall conclusion of the study; for decrease of time-matched, baseline-adjusted LS mean PR interval (ΔΔPR): 2 hours postdose
Experimental: This was a single-center, randomized, crossover study with 4 treatments, 4 periods, and 4 sequences conducted in healthy male subjects. Apremilast (Otezla; Celgene Corporation, Summit, NJ, USA) was administered in a double-blind manner with matching placebo, and moxifloxacin was administered in an open-label manner. The core central electrocardiogram (ECG) laboratory staff, including those reading the ECGs, was blinded to treatment, sequence time, and subject identifiers.
The 4 treatments evaluated in this study included an apremilast-matched placebo administered twice daily (b.i.d.) for 9 doses (~ 5 days), a clinically relevant dose of apremilast 30 mg administered b.i.d. for 9 doses, a supratherapeutic dose of apremilast 50 mg administered b.i.d. for 9 doses, and placebo administered on days 1 – 4 followed by a single dose of moxifloxacin 400 mg on day 5. Subjects fasted for at least 8 hours before the morning dose or before the start of Holter monitoring on days –1 and 5.
ECGs were analyzed for ventricular HR, PR, QRS, RR, and QT intervals and morphological changes. Mean of the triplicate ECGs at each nominal time point was used for all reporting and analysis; however, individual values were used to calculate the correction coefficient (γ) for QTcI. The QTc corrections were individual correction by QTcI = QT/RR^γ, Fridericia’s by QTcF = QT/RR^0.33, and Bazett’s by QTcB = QT/RR^0.5. Individual correction coefficient, γ, was estimated using linear regression of log QT on log RR for each subject using all baseline ECG assessments collected before day 1 dosing in period 1 within a subject. Change from baseline was calculated as the average of the three predose assessments on day 1 of the corresponding treatment period subtracted from the value (i.e., QTc) on day 5 at a given time t. Double-delta (ΔΔ) values for various cardiac parameters (i.e., ΔΔQTcI, ΔΔQTcB, etc.) were determined as the change from baseline value relative to placebo at the same scheduled time.
At each time point, difference in least-squares (LS) means was estimated between the LS means of each apremilast dose and placebo (with placebo as reference). Two-sided 90% confidence intervals (CIs) were produced for the comparisons.
The effect of QTcI for moxifloxacin was assessed at 1, 1.5, 2, 3, and 4 hours postdose to assess assay sensitivity. At each time point, the ΔΔ value was estimated between the LS means of moxifloxacin and placebo. […] If at least one of the CIs completely exceeded 5 ms, then the assay was declared sensitive.
For secondary analyses, a Student’s t-test was performed comparing each dose of apremilast vs. placebo and between moxifloxacin and placebo at each time point. Two-sided 90% CIs were produced for the comparisons. The effect of apremilast on QTcF, QTcB, HR, PR, and QT was assessed using the same linear mixed model from the primary analysis. […] The model included treatment group, period, sequence, and baseline ECG interval as a covariate, and subject nested within sequence as a random effect.
If a subject experienced > 1 episode of a particular outlier event, the subject was counted only once for that event.

[2] = test system: healthy male subjects; assay: exploratory PK/PD relationship between ΔΔQTcI and plasma concentration (linear mixed-effect model); assay type: in vivo, human; settings: for relationship between changes in QT/QTc interval and plasma concentration: in vivo; for estimated slope (SE) of ΔΔQTcI vs plasma concentration: linear regression, random effect model, pooled doses
Experimental: The PK/PD analysis was performed using a linear mixed-effect model to explore the relationship between the ΔΔQTcI and plasma concentrations for apremilast, M12, M14, and M16, and to estimate the population slope (β) and standard error of slope (SEβ). The expected maximum ΔΔQTcI effect for each dose and each analyte was estimated using the slope and average Cmax with one-sided upper limit 95% CIs.

[3] = test system: healthy male subjects; assay: safety assessments (adverse events, vital signs, laboratory tests); assay type: in vivo, human; settings: up to doses of 50 mg twice daily
Experimental: Safety assessments were performed at clinic check-in, periodically throughout each treatment period, and at the end-of-study visit and included the measurement of vital signs, recording of standard 12-lead ECGs, collection of samples for clinical laboratory tests, and physical examinations. Adverse events (AEs) and concomitant medication use were assessed and recorded throughout the study.

[4] = parameters: method as in PMID 26097790; settings: 30 mg b.i.d., cited from earlier work
[5] = plasma pharmacokinetics on day 5 after multiple oral doses of apremilast in healthy male subjects; assay type: in vivo, human; settings: for AUC / AUC0–τ, geometric mean (geometric CV%): τ 12 hours; for AUC: read-out: AUC0–τ, geometric mean (geometric CV%); for Tmax: read-out: tmax, median (minimum–maximum)
Experimental: PK parameters were derived using noncompartmental methods with WinNonlin® Professional version 5.1.2 (Pharsight Corporation, Mountain View, CA, USA). […] For determination of PK parameters (terminal elimination rate constant (Kel), time to maximum plasma concentration (tmax), and terminal half-life (t1/2)), plasma concentrations for apremilast and its major metabolites below the limit of quantitation (BLQ) were treated as missing except for the calculation of area under the plasma concentration-time curve (AUC). To calculate AUC, BLQ or missing concentrations in the beginning and end of profile were replaced with zero, and BLQ or missing concentrations in the middle of the profile were interpolated.
Blood samples were collected in lithium heparin tubes and plasma was separated. The plasma samples, fortified with Sorensen’s buffer (25 mM citrate, pH 1.5) containing amastatin 20 µM (1 : 1/v : v), were analyzed by two validated liquid chromatography/tandem mass spectrometry methods, one for determination of apremilast and the other for its metabolites M12 (CC-16166), M14 (CC-16793), and M16 (CC-16557).

[6] = parameters: method as in PMID 21859393; settings: cited from earlier work
[7] = target: T1, hERG potassium channel (Homo sapiens, UniProt Q12809); assay: voltage-clamp study of hERG current in HEK293 cells expressing hERG; assay type: cell-based
T1 construct: expressed in transfected cells; host or cells: HEK-293 cells stably expressing hERG
T1 sequence (Q12809 whole entry): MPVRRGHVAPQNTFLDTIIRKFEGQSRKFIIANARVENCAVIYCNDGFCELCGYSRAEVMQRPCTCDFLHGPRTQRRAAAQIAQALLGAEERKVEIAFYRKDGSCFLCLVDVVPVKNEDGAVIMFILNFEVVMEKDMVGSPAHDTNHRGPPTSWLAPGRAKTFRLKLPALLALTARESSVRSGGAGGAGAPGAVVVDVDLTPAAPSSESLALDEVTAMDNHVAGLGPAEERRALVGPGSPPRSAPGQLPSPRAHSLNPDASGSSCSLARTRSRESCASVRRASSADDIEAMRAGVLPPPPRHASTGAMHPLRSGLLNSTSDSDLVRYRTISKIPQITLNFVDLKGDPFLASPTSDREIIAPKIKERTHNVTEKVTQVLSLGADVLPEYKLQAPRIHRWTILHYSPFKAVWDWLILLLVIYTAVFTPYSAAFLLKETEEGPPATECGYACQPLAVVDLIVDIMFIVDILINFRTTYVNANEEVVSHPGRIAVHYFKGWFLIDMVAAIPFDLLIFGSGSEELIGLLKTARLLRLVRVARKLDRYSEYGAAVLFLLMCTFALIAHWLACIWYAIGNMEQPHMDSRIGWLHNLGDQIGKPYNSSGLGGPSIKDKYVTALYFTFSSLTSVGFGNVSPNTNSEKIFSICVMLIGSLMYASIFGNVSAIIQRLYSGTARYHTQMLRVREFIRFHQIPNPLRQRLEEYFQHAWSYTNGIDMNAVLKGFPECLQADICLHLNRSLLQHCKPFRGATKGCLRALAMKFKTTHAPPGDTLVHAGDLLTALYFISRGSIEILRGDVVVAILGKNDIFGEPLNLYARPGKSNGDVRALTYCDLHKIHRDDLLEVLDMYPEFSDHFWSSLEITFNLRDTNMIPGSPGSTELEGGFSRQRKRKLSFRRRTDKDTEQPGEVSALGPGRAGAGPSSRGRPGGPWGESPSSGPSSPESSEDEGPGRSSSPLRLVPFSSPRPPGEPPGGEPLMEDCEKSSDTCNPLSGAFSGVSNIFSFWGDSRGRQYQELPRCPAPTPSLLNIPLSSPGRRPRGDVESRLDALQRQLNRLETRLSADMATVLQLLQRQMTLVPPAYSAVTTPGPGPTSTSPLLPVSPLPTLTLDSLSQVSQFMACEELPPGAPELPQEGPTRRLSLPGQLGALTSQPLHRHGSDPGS
Source text: This IC50 value is > 2 orders of magnitude greater than the maximum plasma concentration (Cmax) values observed in healthy male subjects and in PsA or rheumatoid patients at the highest doses studied. Prolongation of the QT interval is associated with a rare but dangerous ventricular arrhythmia, torsade de pointes, and drug-induced prolongation of the QT interval represents a significant risk. The current study was undertaken to provide definitive evaluation of the clinical potential for prolongation of the QT interval with apremilast.
Furthermore, a structure-activity relationship study has shown that the structure of a PDE4 inhibitor can be optimized for high-potency PDE4 inhibition and minimize or eliminate its affinity for hERG channel by targeted modification of pharmacophores. The structure of apremilast was optimized for PDE4 inhibition and minimal affinity for the hERG channel.

[8] = patients with rheumatoid arthritis or PsA, n = 15
[9] = apremilast 50 mg b.i.d., day 5, plasma
[10] = male, human, oral, apremilast 30 mg b.i.d., day 5, plasma
[11] = male, human, oral, apremilast 50 mg b.i.d., day 5, plasma
[12] = both apremilast doses, all time points
[13] = both apremilast doses, all values
[14] = apremilast 30 mg b.i.d., day 5, plasma

COc1c(N2C[C@@H]3CCCN[C@@H]3C2)c(F)cc2c(=O)c(C(=O)O)cn(C3CC3)c12 [moxifloxacin]
effect on the QT/QTc interval [1]: significantly increased the QT/QTc interval

CCOc1cc([C@@H](CS(C)(=O)=O)N2C(=O)c3cccc(NC(C)=O)c3C2=O)ccc1OC [apremilast, (S)-N-[2-[1-(3-ethoxy-4-methoxyphenyl)-2-methanesulfonylethyl]-1,3-dioxo-2,3-dihydro-1H-isoindol-4-yl] acetamide]
relationship between changes in QT/QTc interval and plasma concentration [2]: No trend or relationship | estimated slope (SE) of ΔΔQTcI vs plasma concentration [2]: –0.0016 (0.0027) | safety and tolerability [3]: safe and well tolerated | maximum AUC0–12 ([4]; PsA and psoriasis patients): 8,280 ng×h/mL | maximum Cmax ([4]; PsA and psoriasis patients): 0.981 µg/mL | geometric mean Cmax [4, 8]: 0.554 µg/mL | mean AUC0–12 [4, 8]: 3,670 ng×h/mL | increase of AUC with increasing dose ([5]; 50 mg b.i.d. vs 30 mg b.i.d.): ~ 1.5 times | increase of Cmax with increasing dose ([5]; 50 mg b.i.d. vs 30 mg b.i.d.): ~ 1.4 times | t1/2, geometric mean (geometric CV%) [5, 9]: 7.28 (29.1) h | AUC [5, 10]: 2.26 µg·h/mL | half-life ([5]; male, human, oral, apremilast 30 mg b.i.d., day 5, plasma, read-out: t1/2, geometric mean (geometric CV%) (converted)): 6.41 h | Tmax [5, 10]: 2 h | AUC [5, 11]: 3.45 µg·h/mL | Tmax [5, 11]: 2 h | Cmax ([5]; male, human, plasma, oral, 30 mg, apremilast 30 mg b.i.d., day 5, plasma, read-out: Cmax, geometric mean (geometric CV%)): 0.352 µg/mL | Cmax ([5]; male, human, plasma, oral, 50 mg, apremilast 50 mg b.i.d., day 5, plasma, read-out: Cmax, geometric mean (geometric CV%)): 0.507 µg/mL | Cmax ([5]; male, human, plasma, oral, 50 mg, healthy subjects, 50 mg b.i.d., read-out: maximum Cmax): 1.06 µg/mL | half-life ([5]; male, human, plasma, oral, across both doses (30 and 50 mg b.i.d.), read-out: mean t1/2): 6 to 7 h | AUC(0-t) ([5]; male, human, plasma, oral, healthy subjects, 50 mg b.i.d., read-out: maximum AUC0–12): 9.35 µg·h/mL | half-life ([6]; humans): 6 to 9 h | LS mean ΔΔQTcI ([1]; apremilast 30 mg b.i.d., day 5, all time points): –4.2 to 0.7 ms | increase of time-matched, baseline-adjusted LS mean HR (ΔΔHR) ([1]; apremilast 30 mg dose, 2 hours after administration): 3.1 bpm | decrease of time-matched, baseline-adjusted LS mean PR interval (ΔΔPR) ([1]; apremilast 30 mg dose): 2.8 ms | decrease of time-matched, baseline-adjusted LS mean PR interval (ΔΔPR) ([1]; apremilast 50 mg dose): 3.5 ms | increase of time-matched, baseline-adjusted LS mean HR (ΔΔHR) ([1]; apremilast 50 mg dose, 3 hours after administration): 4.4 bpm | LS mean ΔΔQTcI ([1]; both apremilast doses (30 and 50 mg b.i.d.), all time points): < 1 ms | upper limit of two-sided 90% CI of ΔΔQTcB [1, 12]: below 10 ms | upper limit of two-sided 90% CI of ΔΔQTcF [1, 12]: below 10 ms | LS mean ΔΔQTcB [1, 13]: < 5 ms | LS mean ΔΔQTcF [1, 13]: < 1 ms | subjects with maximum on-treatment QT/QTc interval > 480 ms or change from baseline > 60 ms ([1]; categorical analysis, while receiving apremilast): No subject | effect on the QT/QTc interval [1]: did not prolong the QT interval | Hill coefficient of hERG current inhibition ([7]; HEK293 cells expressing hERG): 0.9 | IC50 ([7]; HEK293 cells expressing hERG, read-out: hERG current inhibition, estimated half maximal inhibitory concentration (IC50)): 184 µM | IC50 ([7]; HEK293 cells expressing hERG, same value in mass units, read-out: hERG current inhibition, estimated IC50 (converted)): 184 µM | affinity for the hERG channel ([7]; voltage-clamp, HEK-293 cells stably expressing hERG): low affinity | hERG IC50 relative to Cmax at the highest doses studied ([7]; vs Cmax in healthy male subjects and PsA or rheumatoid patients): > 2 orders of magnitude

O-des-methyl-[S]-CC-10004-glucuronide [M12]
relationship between changes in QT/QTc interval and plasma concentration [2]: No trend or relationship | estimated slope (SE) of ΔΔQTcI vs plasma concentration [2]: –0.0006 (0.0028) | t1/2, geometric mean (geometric CV%) [5, 14]: 12.18 (25.9)^c h | tmax, median (minimum–maximum) [5, 14]: 3.0 (1.0 – 12.0) h | AUC0–τ, geometric mean (geometric CV%) [5, 14]: 3,930 (23.9) ng×h/mL | Cmax, geometric mean (geometric CV%) [5, 9]: 659.1 (21.0) ng/mL | t1/2, geometric mean (geometric CV%) [5, 9]: 12.79 (29.0)^e h | tmax, median (minimum–maximum) [5, 9]: 3.0 (0.5 – 6.0) h | AUC0–τ, geometric mean (geometric CV%) [5, 9]: 5,968 (20.0) ng×h/mL | AUC of metabolite relative to apremilast ([5]; plasma, day 5): ~ 1.7 fold | Cmax of metabolite relative to apremilast ([5]; plasma, day 5): ~ 1.25 fold | pharmacological activity ([6]; glucuronide metabolites): not pharmacologically active | half-life ([6]; humans): ~ 16 hours | metabolite to total radioactivity ratio ([6]; humans): ~ 39%
